Test results as given in patent US7319109B2, “Farnesoid X receptor agonists” (Smith Kline Beecham Corporation, priority 2002, dated 2008).

target: T1, Human FXRα Ligand Binding Domain (FXRα LBD) (Homo sapiens, UniProt Q96RI1); experiment: FXR Affinity Binding Assay: ligand mediated cofactor peptide (SRC-1 LCD2, 676-700) interaction, time resolved fluorescence; settings: FXRα LBD-APC / europium labeled SRC-1 peptide, TRF signal, at least 2 hours at room temperature; read-out: Activity (pEC50) (converted)
T1 construct: polyhistidine (N); made in house; host or cells: E. coli BL21 (DE3), pRSET-A vector
T1 sequence (Q96RI1 222-472 isoform Q96RI1-2): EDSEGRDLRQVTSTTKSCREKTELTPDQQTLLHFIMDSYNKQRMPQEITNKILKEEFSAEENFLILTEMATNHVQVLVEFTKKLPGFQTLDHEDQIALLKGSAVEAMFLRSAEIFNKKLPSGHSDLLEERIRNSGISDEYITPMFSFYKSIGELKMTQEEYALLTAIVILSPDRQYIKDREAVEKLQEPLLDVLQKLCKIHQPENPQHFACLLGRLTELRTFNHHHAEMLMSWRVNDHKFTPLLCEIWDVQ

EC50, 1020 to 10000 nM:
CC(C)c1onc(-c2ccccc2OC(F)(F)F)c1COc1ccc(NS(=O)(=O)c2cccc(C(=O)O)c2)c(Cl)c1 [Example 68, 3-({[2-Chloro-4-({5-isopropyl-3-[2-(trifluoromethoxy)phenyl]isoxazol-4-yl}methoxy)-phenyl]amino}sulfonyl)benzoic acid]
Cc1cc(OCc2c(-c3c(Cl)cccc3Cl)noc2C(C)C)ccc1NC(=O)c1cccc(C(=O)O)c1 [Example 26, 3-[(4-{[3-(2,6-Dichlorophenyl)-5-isopropyl-4-isoxazolyl]methoxy}-2-methylanilino)carbonyl]benzoic acid]
CC(C)c1onc(-c2c(Cl)cccc2Cl)c1COc1ccc(NS(=O)(=O)c2ccc(C(=O)O)cc2)c(Cl)c1 [Example 56, 4-{[(2-Chloro-4-{[3-(2,6-dichlorophenyl)-5-isopropylisoxazol-4-yl]methoxy}phenyl)-amino]sulfonyl}benzoic acid]

EC50, 102 to 1000 nM:
CC(C)c1onc(-c2c(Cl)cccc2Cl)c1COc1ccc(CN(C)c2cccc(C(=O)O)c2)c(Cl)c1 [Example 93, 3-[(2-Chloro-4-{[3-(2,6-dichlorophenyl)-5-isopropylisoxazol-4-yl]methoxy}benzyl)(methyl)amino]benzoic acid]
COC(=O)c1cccc(S(=O)(=O)N(C)c2ccc(OCc3c(-c4ccccc4OC(F)(F)F)noc3C(C)C)cc2Cl)c1 [Example 70, Methyl 3-{[[2-chloro-4-({5-isopropyl-3-[2-(trifluoromethoxy)phenyl]-isoxazol-4-yl}methoxy)phenyl](methyl)amino]sulfonyl}benzoate]
COC(=O)c1cccc(C(=O)Nc2ccc(OCc3c(-c4c(Cl)cccc4Cl)noc3C(C)C)cc2Cl)c1 [Example 24, Methyl 3-[(2-chloro-4-{[3-(2,6-dichlorophenyl)-5-isopropyl-4-isoxazolyl]methoxy}anilino)carbonyl]benzoate]
Cc1cc(OCc2c(Cc3c(Cl)cccc3Cl)noc2C(C)C)ccc1N(C)Cc1cccc(C(=O)O)c1 [Example 15, 3-[(4-{[3-(2,6-Dichlorobenzyl)-5-isopropyl-4-isoxazolyl]methoxy}-2-dimethylanilino)methyl]benzoic acid]
Cc1cc(OCc2c(-c3c(Cl)cccc3Cl)noc2C(C)C)ccc1NS(=O)(=O)c1ccc(C(=O)O)cc1 [Example 57, 4-{[(4-{[3-(2,6-Dichlorophenyl)-5-isopropylisoxazol-4-yl]methoxy}-2-methylphenyl)-amino]sulfonyl}benzoic acid]
Cc1cc(OCc2c(-c3c(Cl)cccc3Cl)noc2C(C)C)ccc1N(C)Cc1occc1C(=O)O [Example 10, 2-[(4-{[3-(2,6-Dichlorophenyl)-5-isopropyl-4-isoxazolyl]methoxy}-2-dimethylanilino)methyl]-3-furoic acid]
Cc1cc(OCc2c(-c3ccccc3OC(F)(F)F)noc2C(C)C)ccc1NC(=O)c1cccc(C(=O)O)c1 [Example 33, 3-{[4-({5-Isopropyl-3-[2-(trifluoromethoxy)phenyl]-4-isoxazolyl}methoxy)-2-methylanilino]carbonyl}benzoic acid]
COC(=O)c1cccc(S(=O)(=O)N(C)c2ccc(OCc3c(-c4c(Cl)cccc4Cl)noc3C(C)C)cc2)c1 [Example 42, Methyl 3-{[(4-{[3-(2,6-dichlorophenyl)-5-isopropylisoxazol-4-yl]methoxy}phenyl)-(methyl)amino]sulfonyl}benzoate]
COC(=O)c1ccc(C(=O)Nc2ccc(OCc3c(-c4c(Cl)cccc4Cl)noc3C(C)C)cc2Cl)cc1 [Example 25, Methyl 4-[(2-chloro-4-{[3-(2,6-dichlorophenyl)-5-isopropyl-4-isoxazolyl]methoxy}anilino)carbonyl]benzoate]
COC(=O)c1cccc(SCc2ccc(OCc3c(-c4ccccc4OC(F)(F)F)noc3C(C)C)cc2Cl)c1 [Example 88, Methyl 3-{[2-chloro-4-({5-isopropyl-3-[2-(trifluoro-methoxy)phenyl]isoxazol-4-yl}methoxy)benzyl]thio}benzoate]
CC(C)c1onc(-c2c(Cl)cccc2Cl)c1COc1ccc(NC(=O)c2cccc(C(=O)O)c2)c(Cl)c1 [Example 28, 3-[(2-Chloro-4-{[3-(2,6-dichlorophenyl)-5-isopropyl-4-isoxazolyl]methoxy}anilino)carbonyl]benzoic acid]
COC(=O)c1cccc(S(=O)(=O)Nc2ccc(OCc3c(-c4c(Cl)cccc4Cl)noc3C(C)C)cc2)c1 [Example 38, Methyl 3-{[(4-{[3-(2,6-dichlorophenyl)-5-isopropylisoxazol-4yl]methoxy}phenyl)amino]-sulfonyl}benzoate]
COC(=O)c1cccc(S(=O)(=O)N(C)c2ccc(OCc3c(-c4c(Cl)cccc4Cl)noc3C(C)C)cc2Cl)c1 [Example 41, Methyl 3-{[(2-chloro-4-{[3-(2,6-dichlorophenyl)-5-isopropylisoxazol-4-yl]methoxy}-phenyl)(methyl)amino]sulfonyl}benzoate]
CC(C)c1onc(-c2ccccc2OC(F)(F)F)c1COc1ccc(CN(C)c2cccc(C(=O)O)c2)c(Cl)c1 [Example 97, 3-[[2-Chloro-4-({5-isopropyl-3-[2-(trifluoromethoxy)phenyl]-4-isoxazolyl}methoxy)benzyl](methyl)amino]benzoic acid]
CC(C)c1onc(-c2c(Cl)cccc2Cl)c1COc1ccc(CNc2cccc(C(=O)O)c2)c(Cl)c1 [Example 94, 3-[(2-Chloro-4-{[3-(2,6-dichlorophenyl)-5-isopropylisoxazol-4-yl]methoxy}benzyl)amino]benzoic acid]
COC(=O)c1cccc(S(=O)(=O)Nc2ccc(OCc3c(-c4c(Cl)cccc4Cl)noc3C(C)C)cc2Cl)c1 [Example 36, Methyl 3-{[(2-chloro-4-{[3-(2,6-dichlorophenyl)-5-isopropylisoxazol-4-yl]methoxy}-phenyl)amino]sulfonyl}benzoate]
COC(=O)c1cccc(COc2ccc(OCc3c(-c4c(Cl)cccc4Cl)noc3C(C)C)cc2C)c1 [Example 100, Methyl 3-[(4-{[3-(2,6-dichlorophenyl)-5-isopropylisoxazol-4-yl]methoxy}-2-methyl-phenoxy)methyl]benzoate]
CC(C)c1onc(-c2c(Cl)cccc2Cl)c1COc1ccc(OCc2cccc(C(=O)O)c2)c(Cl)c1 [Example 101, 3-[(2-Chloro-4-{[3-(2,6-dichlorophenyl)-5-isopropylisoxazol-4-yl]methoxy}phenoxy)-methyl]benzoic acid]
CCc1onc(Cc2c(Cl)cccc2Cl)c1COc1ccc(COc2cccc(C(=O)O)c2)c(Cl)c1 [Example 87, 3-[(2-Chloro-4-{[3-(2,6-dichlorobenzyl)-5-ethylisoxazol-4-yl]methoxy}benzyl)oxy]benzoic acid]
CCN(c1ccc(OCc2c(-c3c(Cl)cccc3Cl)noc2C(C)C)cc1)S(=O)(=O)c1cccc(C(=O)O)c1 [Example 52, 3-{[(4-{[3-(2,6-Dichlorophenyl)-5-isopropylisoxazol-4-yl]methoxy}phenyl)(ethyl)-amino]sulfonyl}benzoic acid]
CC(C)c1onc(-c2c(Cl)cccc2Cl)c1COc1ccc(CSc2ccc(C(=O)O)cc2)c(Cl)c1 [Example 82, 4-[(2-Chloro-{[3-(2,6-dichlorophenyl)-5-isopropylisoxazol-4-yl]methoxy}benzyl)thio]-benzoic acid]
COC(=O)c1ccc(OCc2ccc(OCc3c(-c4c(Cl)cccc4Cl)noc3C(C)C)cc2Cl)cc1 [Example 75, Methyl 4-[(2-chloro-4-{[3-(2,6-dichlorophenyl)-5-isopropylisoxazol-4-yl]methoxy}benzyl)oxy]benzoate]

EC50, < 100 nM:
CCN(c1ccc(OCc2c(-c3c(Cl)cccc3Cl)noc2C(C)C)cc1Cl)S(=O)(=O)c1ccc(C(=O)O)cc1 [Example 65, 4-{[(2-Chloro-4-{[3-(2,6-dichlorophenyl)-5-isopropylisoxazol-4-yl]methoxy}phenyl)-(ethyl)amino]sulfonyl}benzoic acid]
COC(=O)c1ccc(S(=O)(=O)Nc2ccc(OCc3c(-c4c(Cl)cccc4Cl)noc3C(C)C)cc2C)cc1 [Example 54, Methyl 4-{[(4-{[3-(2,6-dichlorophenyl)-5-isopropylisoxazol-4-yl]methoxy}-2-methyl-phenyl)amino]sulfonyl}benzoate]
Cc1cc(OCc2c(-c3ccccc3OC(F)(F)F)noc2C(C)C)ccc1N(C)Cc1ccc(C(=O)O)o1 [Example 18, 5-{[4-({5-Isopropyl-3-[2-(trifluoromethoxy)phenyl]-4-isoxazolyl}methoxy)-2-dimethylanilino]methyl}-2-furoic acid]
CC(C)c1onc(-c2c(Cl)cccc2Cl)c1COc1ccc(CSc2cccc(C(=O)O)c2)c(Cl)c1 [Example 78, 3-[(2-Chloro-4-{[3-(2,6-dichlorophenyl)-5-isopropylisoxazol-4-yl]methoxy}benzyl)thio]-benzoic acid]
CC(C)c1onc(-c2c(Cl)cccc2Cl)c1COc1ccc(COc2ccc(C(=O)O)cc2)c(Cl)c1 [Example 81, 4-[(2-Chloro-4-{[3-(2,6-dichlorophenyl)-5-isopropylisoxazol-4-yl]methoxy}benzyl)oxy]benzoic acid]
COC(=O)c1ccc(CN(C)c2ccc(OCc3c(-c4ccccc4OC(F)(F)F)noc3C(C)C)cc2C)o1 [Example 21, Methyl 5-{[4-({5-isopropyl-3-[2-(trifluoromethoxy)phenyl]-4-isoxazolyl}methoxy)-2-dimethylanilino]methyl}-2-furoate]
